In experiment [1] the target is T1, human P2X7 (Homo sapiens (Human), UniProt Q99572). Description: P2X7 antagonism in human PBMCs (IL-1β release after LPS + Bz-ATP, ELISA). Format: cell-based. Particulars: human PBMCs, test compound 10 μM.
The target of experiment [2] is T1, human P2X7. In words: P2X7 antagonism in human whole blood (IL-1β release after LPS + Bz-ATP, ELISA). Format: cell-based. Particulars: LPS 30 ng/ml + 1 mM Bz-ATP.
Procedure: P2X7 Antagonism in Human Peripheral Blood Mononuclear Cells (PBMCs) and Human Whole Blood.
Human blood was collected using a blood donor program. PBMCs were isolated from blood using a Ficoll density gradient technique. Briefly, blood was laid on Ficoll solution and centrifuged at RT for 20 minutes at 2000 rpm. The buffy layer (between red blood cells and plasma) was carefully collected by aspiration, washed with PBS and centrifuged again at 1500 rpm for 15 minutes. The resulting cell pellet was washed and plated on 96 well-plates for experiments. For the Human Whole Blood experiments, 150 μl of human blood was platted on 96 well-plates. Lipopolysaccharide (LPS) (30 ng/ml) was added to each well and incubated for 1 hour. Test compounds were then added and incubated for 30 minutes. The P2X7 agonist, 2′(3′)-O-(4-benzoylbenzoyl) adenosine 5′ triphosphate (Bz-ATP) was then added at a final concentration of 0.5 mM (PBMC) or 1 mM (blood). Cells were incubated for an additional 1.5 hours. At that point, supernatant was collected and stored for IL-1β assay using manufacturer's protocol for enzyme-linked immunosorbent assay (ELISA). Data was expressed as percent control, where control is defined as the difference in IL-1β release in LPS+Bz-ATP samples and LPS only samples. […] Data are analyzed and graphed on Graphpad Prism 5. […]
Experiment [3] has as its target T1, human P2X7. Description: Ca2+ flux (FLIPR) in 1321N1 cells expressing recombinant human P2X7.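 Also: cells loaded with Calcium-4 dye, preincubated with test compound for 30 min, fluorescence change read 180 s after agonist addition.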 Particulars: 1321N1 cells, recombinant human P2X7, 250 μM BzATP. The experiment is classed as cell-based.
Procedure: P2X7 Antagonism in Recombinant Human P2X7 Cells or Recombinant Rat P2X7 Cells: (a) Ca^2+ Flux and (b) Radioligand Binding
1321N1 cells expressing the recombinant human or rat P2X7 channel was cultured in HyQ DME/(HyClone/Dulbecco's Modified Eagle Medium) high glucose supplemented with 10% Fetal Bovine Serum (FBS) and appropriate selection marker. Cells were seeded at a density of 25000 cells/well (96-well clear bottom black walled plates) in 100 μl volume/well. On the day of the experiment, cell plates were washed with assay buffer, containing (in mM): 130 NaCl, 2 KCl, 1 CaCl2, 1 MgCl2, 10 HEPES, 5 glucose; pH 7.40 and 300 mOs. After the wash, cells were loaded with the Calcium-4 dye (Molecular Device) and incubated in the dark for 60 minutes. Test compounds were prepared at 250× the test concentration in neat DMSO. Intermediate 96-well compound plates were prepared by transferring 1.2 μL of the compound into 300 μL of assay buffer. A further 3× dilution occurred when transferring 50 μL/well of the compound plate to 100 μL/well in the cell plate. Cells were incubated with test compounds and dye for 30 minutes. […] The fluorescence change was measured 180 seconds after adding the agonist.
The target of experiment [4] is T2, rat P2X7 (Rattus norvegicus (Rat), UniProt Q64663). Description: Ca2+ flux (FLIPR) in 1321N1 cells expressing recombinant rat P2X7.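 Also: Calcium-4 dye fluorescence change read 180 s after agonist addition, with cells preincubated 30 min with compound and dye in 96-well plates.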 The note with it: 1321N1 cells, recombinant rat P2X7, 250 μM BzATP. The experiment is classed as cell-based.
T2 sequence (Q64663 whole entry): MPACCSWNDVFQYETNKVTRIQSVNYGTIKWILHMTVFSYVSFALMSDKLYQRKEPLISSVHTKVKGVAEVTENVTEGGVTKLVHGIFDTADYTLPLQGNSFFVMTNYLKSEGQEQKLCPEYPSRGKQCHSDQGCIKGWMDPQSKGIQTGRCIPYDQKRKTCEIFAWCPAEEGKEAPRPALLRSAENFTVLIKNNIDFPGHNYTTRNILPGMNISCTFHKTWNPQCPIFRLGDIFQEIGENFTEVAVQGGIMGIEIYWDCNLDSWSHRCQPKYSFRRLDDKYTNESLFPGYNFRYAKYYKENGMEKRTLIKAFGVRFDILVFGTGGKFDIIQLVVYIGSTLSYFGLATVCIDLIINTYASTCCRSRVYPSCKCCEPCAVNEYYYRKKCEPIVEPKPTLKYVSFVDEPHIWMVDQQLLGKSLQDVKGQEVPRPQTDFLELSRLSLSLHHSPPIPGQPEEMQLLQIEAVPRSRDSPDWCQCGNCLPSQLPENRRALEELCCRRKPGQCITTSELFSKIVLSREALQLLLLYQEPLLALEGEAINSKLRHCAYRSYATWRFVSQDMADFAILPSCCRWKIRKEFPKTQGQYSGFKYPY
Experiment [5] has as its target T1, human P2X7. Description: Radioligand binding ([3H]A-804598), human P2X7-1321N1 cell membranes. Particulars: human P2X7-1321N1 membranes, tritiated A-804598.
Procedure: (§1) human or rat P2X7-1321N1 cells were collected and frozen @−80° C. On the day of the experiment, cell membrane preparations were made according to standard published methods. […] The assay was terminated by filtration (GF/B filters pre-soaked with 0.3% PEI) and washed with washing buffer (Tris-HCl 50 mM). The IC50 generated in the binding assay was corrected for tracer concentration and affinity of the tracer to derive at the affinity (Ki) of the test compounds. […] For analysis, each concentration point is averaged from triplicate values and the averaged values are plotted on Graphpad Prism.
Experiment [6] addresses T2, rat P2X7. Description: Radioligand binding ([3H]A-804598), rat P2X7-1321N1 cell membranes. The note with it: rat P2X7-1321N1 membranes, tritiated A-804598.
Procedure: as §1

2 molecules from patent publication US10112937B2, “P2X7 modulators and methods of use” (Janssen Pharmaceutica NV, priority 2013, dated 2018) can be followed below.

T1 sequence (Q99572 whole entry): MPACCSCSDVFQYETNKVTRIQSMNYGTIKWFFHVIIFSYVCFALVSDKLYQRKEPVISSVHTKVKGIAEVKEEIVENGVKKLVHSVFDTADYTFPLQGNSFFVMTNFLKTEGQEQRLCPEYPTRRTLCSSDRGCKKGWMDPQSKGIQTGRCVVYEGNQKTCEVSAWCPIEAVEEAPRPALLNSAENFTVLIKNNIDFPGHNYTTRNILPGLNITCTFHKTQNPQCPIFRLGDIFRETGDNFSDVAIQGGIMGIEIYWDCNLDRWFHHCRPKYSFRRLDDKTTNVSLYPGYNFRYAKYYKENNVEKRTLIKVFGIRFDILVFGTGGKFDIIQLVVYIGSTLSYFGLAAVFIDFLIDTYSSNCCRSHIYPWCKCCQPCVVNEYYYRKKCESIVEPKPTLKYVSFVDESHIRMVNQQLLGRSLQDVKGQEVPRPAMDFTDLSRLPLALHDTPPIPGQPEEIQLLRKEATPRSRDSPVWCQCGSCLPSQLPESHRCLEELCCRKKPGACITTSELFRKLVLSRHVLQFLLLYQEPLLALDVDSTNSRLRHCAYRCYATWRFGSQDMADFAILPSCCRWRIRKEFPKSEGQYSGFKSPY

In the case of `Cc1ccnc(-n2nnc3c2CCN(C(=O)c2cccc(C(F)(F)F)c2Cl)[C@@H]3C)n1` (single isomer, unassigned) [Example 235, (4R*)-(2-Chloro-3-(trifluoromethyl)phenyl)(4-methyl-1-(4-methylpyrimidin-2-yl)-6,7-dihydro-1H-[1,2,3]triazolo[4,5-c]pyridin-5(4H)-yl)methanone], the “PBMC 10 μM (% control)” value on human P2X7 [1] is recorded as −3.7 % control. Besides, the concentration for half-maximal inhibition (IC50) on human P2X7 [2] was 17 nM.
`Cc1cc(-n2nnc3c2CCN(C(=O)c2ccnc(C(F)(F)F)c2Cl)[C@@H]3C)ncc1F` (single isomer, unassigned) [Example 371, (R*)-(3-chloro-2-(trifluoromethyl)pyridin-4-yl)(1-(5-fluoro-4-methylpyridin-2-yl)-4-methyl-6,7-dihydro-1H-[1,2,3]triazolo[4,5-c]pyridin-5(4H)-yl)methanone]: the “PBMC 10 μM (% control)” value on human P2X7 [1] is −2.3 % control. Also, the IC50 is 4.3 nM at human P2X7 [3] and 42.5 nM at rat P2X7 [4]. Moreover, the inhibitory constant (Ki) was found to be 17.6 nM at human P2X7 [5] and 47.3 nM on rat P2X7 [6].
